Source: PMC9942557, “Bolaamphiphile Analogues of 12-bis-THA Cl2 Are Potent Antimicrobial Therapeutics with Distinct Mechanisms of Action against Bacterial, Mycobacterial, and Fungal Pathogens” (mSphere, 2022)

Experiments:
[1] = system: Pseudomonas aeruginosa PAO1; experiment: Broth microdilution MIC; format: cell-based
[2] = system: C. krusei 3876; experiment: Broth microdilution MIC; format: cell-based
[3] = system: EMR Staphylococcus aureus 15 NCTC 13616; experiment: Broth microdilution MIC; format: cell-based; conditions: EMR Staphylococcus aureus 15 NCTC 13616
[4] = system: VS Enterococcus faecalis NCTC 775; experiment: Broth microdilution MIC; format: cell-based
[5] = system: Acinetobacter baumannii ATCC 17978; experiment: Broth microdilution MIC; format: cell-based
[6] = system: C. parapsilosis 3209; experiment: Broth microdilution MIC; format: cell-based
[7] = system: HeLa; experiment: In vitro toxicity for cell line; format: cell-based, human; conditions: average ± standard error from 3 independent repeats
From the text: (§1) TABLE 2 Toxicity of bolaamphiphiles for two cell lines^a | column: Toxicity (EC50 [μg/ml]) of: / 12-bis-THA Cl2; Toxicity (EC50 [μg/ml]) of: / Dequalinium; Toxicity (EC50 [μg/ml]) of: / Quino-bola; Toxicity (EC50 [μg/ml]) of: / Penta-bola; Toxicity (EC50 [μg/ml]) of: / Hepta-bola; Toxicity (EC50 [μg/ml]) of: / Octa-bola; Toxicity (EC50 [μg/ml]) of: / Octa-C10; Toxicity (EC50 [μg/ml]) of: / Octa-C8; Toxicity (EC50 [μg/ml]) of: / Octa-C6

[8] = system: HEK293; experiment: In vitro toxicity for cell line; format: cell-based, human; conditions: HEK293; average ± standard error from 3 independent repeats
From the text: as §1

[9] = system: EMR Staphylococcus aureus 16 NCTC 13277; experiment: Broth microdilution MIC; format: cell-based; conditions: EMR Staphylococcus aureus 16 NCTC 13277
[10] = system: VR Enterococcus faecium NCTC 12204; experiment: Broth microdilution MIC; format: cell-based; conditions: VR Enterococcus faecium NCTC 12204
[11] = system: Escherichia coli ATCC 25922; experiment: Intrahemocoelic G. mellonella infection model; format: in vivo, Galleria mellonella; conditions: single 10-mg/kg dose 1 h after infection
Protocol: The antimicrobial activities of DQC, CM2, and its analogues Quino-bola, Penta-bola, Hepta-bola, and Octa-bola against Escherichia coli ATCC 25922 were tested in Galleria mellonella larvae. All assays were performed on two separate occasions using a group size of 10 larvae; the larvae were kept in separate petri dishes and in a static incubator at 37°C during the period of the experiment. A suspension of E. coli ATCC 25922 was prepared by transferring two colonies of E. coli ATCC 25922 from a fresh agar plate into PBS and adjusting the absorbance to a McFarland 0.5 standard. The number of CFU per milliliter of this suspension was determined and corresponded to 1 × 10^8 CFU/mL. Larvae were injected beneath the tegument with 10 μL of a 1 × 10^7-CFU/mL bacteria suspension, corresponding to 1 × 10^5 CFU per larva. A 50-μL Hamilton syringe with a G27 needle was used for the injection. […] Ten microliters of stock solution was injected into each larva 1 h after infection (10 mg/kg). Levofloxacin (LVX; 50 μg/mL = 2 mg/kg) and PBS were used as positive and negative controls, respectively. A noninfected PBS injection was included to control for the effects of injection. Survival was monitored over a period of 70 to 72 h. Changes in G. mellonella survival were analyzed by the log rank (Mantel-Cox) method and plotted as Kaplan-Meier survival curves using GraphPad Prism version 7.

[12] = system: VR Enterococcus faecalis NCTC 12201; experiment: Broth microdilution MIC; format: cell-based; conditions: VR Enterococcus faecalis NCTC 12201
[13] = system: C. albicans 3281; experiment: Broth microdilution MIC; format: cell-based, Candida albicans; conditions: C. albicans 3281
[14] = system: C. albicans 3179; experiment: Broth microdilution MIC; format: cell-based, Candida albicans; conditions: C. albicans 3179
[15] = system: Acinetobacter baumannii AYE; experiment: Broth microdilution MIC; format: cell-based; conditions: Acinetobacter baumannii AYE
[16] = system: C. tropicalis 8760; experiment: Broth microdilution MIC; format: cell-based; conditions: C. tropicalis 8760
[17] = system: Pseudomonas aeruginosa NCTC 13437; experiment: Broth microdilution MIC; format: cell-based
[18] = system: pBR322 plasmid, wheat germ topoisomerase I; experiment: DNA unwinding assay; format: biochemical
Protocol: A DNA unwinding assay kit (Inspiralis Limited, Norwich, UK) consists of wheat germ topoisomerase I assay buffer (50 mM Tris HCl [pH 7.9], 1 mM EDTA, 1 mM dithiothreitol [DTT], 20% [vol/vol] glycerol, 50 mM NaCl) dilution buffer (50 mM Tris HCl [pH 7.9], 1 mM EDTA, 1 mM DTT, 50% [vol/vol] glycerol, 500 mM NaCl), wheat germ topoisomerase I (5 U/μL), supercoiled plasmid pBR322 (1 μg/μL), and relaxed plasmid pBR322 (1 μg/μL). For the experiments, 2× DNA loading buffer containing 40% (wt/vol) sucrose, 100 mM Tris-HCl (pH 8), 1 mM EDTA, and 0.5 mg/mL bromophenol blue was prepared. The enzyme was diluted 1/5 with dilution buffer before being used in the assay. For the assay, 3 mM stock solutions in methanol of the compounds to be tested were prepared. An appropriate number of 1.5-mL Eppendorf tubes were filled with 25 μL of a mix consisting of assay buffer (15 μL of buffer per sample), supercoiled or relaxed pBR322 (0.5 μg/assay), and ultrapure water. In the first two tubes, 1 μL of methanol was added to test the effect of the solvent on both the plasmid and the enzyme. Subsequently, 1 μL of the test compounds was added to the remaining tubes, and the tubes briefly vortexed and incubated at room temperature for 5 min. After that, 2 μL of dilution buffer was added in the first tube, whereas 2 μL of enzyme diluted solution was added to the remaining tubes. The tubes were gently vortexed and incubated for 30 min at 37°C in a water bath. After this time, the reaction was stopped by adding 20 μL of water and 50 μL of water-saturated butanol to each tube. The tubes were vortexed and centrifuged for 1 min at 14,800 rpm. The lower aqueous layer of each tube was removed and transferred to a new tube containing 30 μL of chloroform-isoamyl alcohol (24/1) and 50 μL of loading buffer. The tubes were briefly vortexed and centrifuged for 1 min. Twenty microliters of the upper layer of each tube was loaded onto a 1% (wt/vol) agarose gel, and the gel was run at 80 V for approximately 4 h in Tris-acetate-EDTA buffer (40 mM Tris acetate and 1 mM EDTA). Subsequently, the gel was stained with ethidium bromide (1 μg/mL) for 15 min, briefly destained (5 to 10 min) in water, and visualized with a Multi-Doc Imaging M-26X UVP transilluminator.

[19] = system: Klebsiella pneumoniae M6; experiment: Broth microdilution MIC; format: cell-based
[20] = system: C. parapsilosis; experiment: Broth microdilution MIC; format: cell-based
[21] = system: C. glabrata 8018; experiment: Broth microdilution MIC; format: cell-based; conditions: C. glabrata 8018
[22] = system: C. auris temp probe; experiment: Broth microdilution MIC; format: cell-based, Candida auris; conditions: C. auris temp probe
[23] = system: Escherichia coli NCTC 12923; experiment: Broth microdilution MIC; format: cell-based
[24] = system: P. aeruginosa PAO1; experiment: Checkerboard synergy assay; format: cell-based, Pseudomonas aeruginosa
[25] = system: Klebsiella pneumoniae NCTC 13368; experiment: Broth microdilution MIC; format: cell-based
[26] = system: M. tuberculosis Bleupan; experiment: microbe, parasite or virus in culture; format: cell-based, Mycobacterium tuberculosis
[27] = system: M. smegmatis mc^2 155; experiment: Broth microdilution MIC (Middlebrook 7H9); format: cell-based, Mycobacterium smegmatis

| Structure (SMILES) | MIC [1] [µg/mL] | MIC [2] [µg/mL] | MIC [3] [µg/mL] | MIC [4] [µg/mL] | MIC [5] [µg/mL] | MIC [6] [µg/mL] | Toxicity (EC50) [7] [µg/mL] | Toxicity (EC50) [8] [µg/mL] | MIC [9] [µg/mL] | MIC [10] [µg/mL] | MIC [12] [µg/mL] | MIC [13] [µg/mL] | MIC [14] [µg/mL] | MIC [15] [µg/mL] | MIC [16] [µg/mL] | MIC [17] [µg/mL] | MIC [19] [µg/mL] | MIC [20] [µg/mL] | MIC [21] [µg/mL] | MIC [22] [µg/mL] | also measured |
| --- | --- | --- | --- | --- | --- | --- | --- | --- | --- | --- | --- | --- | --- | --- | --- | --- | --- | --- | --- | --- | --- |
| Nc1c2c([n+](CCCCCCCCCCCC[n+]3c4c(c(N)c5ccccc53)CCCCC4)c3ccccc13)CCCCC2 [Hepta-bola] | 32 | 0.5 | 0.25 | 1 | 16 | 1 | 4.5 ± 0.7 | 3.5 ± 1.2 | 0.25 | 0.5 | 0.5 | 0.5 | 0.5 | 16 | 0.25 | 32 | 16 | 2 | 0.25 | 2 | protection (survival over 72 h) [11]: significantly protective; DNA intercalation ([18]; relaxed pBR322 plasmid plus topoisomerase I (Fig. 2A)): to a slightly lesser extent, Hepta-bola are intercalators; relaxation of supercoiled plasmid through the action of topoisomerase I ([18]; supercoiled pBR322 plasmid, bolalipid present (Fig. 2B)): not observed; MIC [23]: 2 µg/mL; MIC alone Bolalipid [24]: 32 µg/mL; MIC [25]: 32 µg/mL |
| Nc1c2c([n+](CCCCCCCC[n+]3c4c(c(N)c5ccccc53)CCCCCC4)c3ccccc13)CCCCCC2 [Octa-C8] | 32 | 4 | 1 | 4 | 32 | 4 | 27.3 ± 1.3 | 12.9 ± 4.3 | 1 | 0.5 | 4 | 2 | 2 | 32 | 1 | 32 | 32 | 8 | 2 | 4 | MIC [26]: 0.49 µg/mL; MIC [23]: 8 µg/mL; MIC [27]: 0.19 µg/mL; MIC [25]: 32 µg/mL |
